# ± gives the expanded uncertainty stated by the source.
# Details: Liquid, Twin ebulliometer
compound,measurement,setting,value
CCOc1ccccc1O [2-ethoxyphenol],vapor or sublimation pressure,380.22 K,2.827 ± 0.015 kPa
same,vapor or sublimation pressure,383.28 K,3.25 ± 0.015 kPa
same,vapor or sublimation pressure,386.29 K,3.72 ± 0.015 kPa
same,vapor or sublimation pressure,391.94 K,4.757 ± 0.015 kPa
same,vapor or sublimation pressure,397.4 K,5.986 ± 0.015 kPa
same,vapor or sublimation pressure,402.92 K,7.506 ± 0.016 kPa
same,vapor or sublimation pressure,408.63 K,9.39 ± 0.016 kPa
same,vapor or sublimation pressure,414.5 K,11.73 ± 0.016 kPa
same,vapor or sublimation pressure,418.79 K,13.71 ± 0.016 kPa
same,vapor or sublimation pressure,423.31 K,16.11 ± 0.016 kPa
same,vapor or sublimation pressure,428.48 K,19.24 ± 0.017 kPa
same,vapor or sublimation pressure,436.26 K,24.89 ± 0.018 kPa
same,vapor or sublimation pressure,445.61 K,33.38 ± 0.019 kPa
same,vapor or sublimation pressure,457.01 K,46.82 ± 0.023 kPa
same,vapor or sublimation pressure,486.03 K,100.76 ± 0.025 kPa
